Data reported in patent US9173425B2, “High-potency sweetener composition with vitamin and compositions sweetened therewith” (THE COCA-COLA COMPANY, priority 2005, dated 2015).

Key:
[1] = system: panel of experts in the sensory evaluation of foods and beverages; assay: Sensory evaluation of sweetness linger and sugar-like taste by expert panel; type: in vivo, human; set-up: key: 0=no sweetness linger; 1=very slight sweetness linger; 2=slight sweetness linger; 3=moderate sweetness linger; 4=moderately high sweetness linger; 5=high sweetness linger; conditions: for Sweetness Linger rating defined by protocol: scale anchors: sucrose, 500 ppm of REBA control sample
Protocol: Sensory evaluation of the samples prepared in Example Set G was carried out under the following protocol, similar to that described hereinabove. In this test protocol, none of the samples were swallowed. All samples were expectorated and the mouth was rinsed with water after the tasting. Immediately upon sensing maximal sweetness, the sample was expectorated, the mouth was rinsed with water and the rate of sweetness decay (“Sweetness Linger”) was measured, where attention was focused on the sweetness 3-4 min after the water rinse. After sample tasting was complete, a salty oyster cracker was chewed followed by a water rinse, and at least 5 minutes followed before tasting the next sample. The sweetness linger was rated by a panel of experts in the sensory evaluation of foods and beverages using the following scale: 0=no sweetness linger, 1=very slight sweetness linger, 2=slight sweetness linger, 3=moderate sweetness linger, 4=moderately high sweetness linger, 5=high sweetness linger.
The “Sweetness Linger” rating for sucrose observed by this protocol is defined as 0. The Sweetness Linger of a 500 ppm of REBA control sample is defined as 5. Experimental samples were tasted by the same protocol, always allowing sufficient time between samples to ensure re-equilibration of the sensory system. Re-tasting of control samples during the course of the experiment was allowed and encouraged.
The comparison taste test was performed between two controls and addition of sweet taste improving additive on the onset and/or sweetness linger.
Sweet taste improving compositions were combined with a REBA solution to determine their effect on sweetness linger. Screening of the initial sample, or further dilutions, allowed identification of concentrations which were just above-threshold, herein defined as “near-threshold concentrations.” The near-threshold additive concentrations, a 6- to 100-fold higher additive concentration (depending on the off-taste intensity), and a mid-level additive concentration (halfway between the near-threshold and higher additive concentration) were evaluated to determine the effect on sweetness linger of a REBA solution. […]
Sensory evaluation using the protocol described in Example Set G then was used to evaluate the sweetness linger of the REBA solutions.

[2] = Sweetness level as sucrose equivalent
[3] = Moisture content of rebaudioside A polymorphs; type: physicochemical
Excerpt: (§1) The purification of rebaudioside A by crystallization as described above results in the formation of at least four different polymorphs: Form 1: a rebaudioside A hydrate; Form 2: an anhydrous rebaudioside A; Form 3: a rebaudioside A solvate; and Form 4: an amorphous rebaudioside A. The aqueous organic solution and temperature of the purification process influence the resulting polymorphs in the substantially pure rebaudioside A composition. FIGS. 1-5 are exemplary powder x-ray diffraction (XRPD) scans of polymorphs Form I (hydrate), Form 2 (anhydrate), Form 3A (methanol solvate), Form 3B (ethanol solvate), and Form 4 (amorphous), respectively.

[4] = Rate of dissolution of rebaudioside A polymorphs in H2O at 25° C.; type: physicochemical; conditions: result in words
Excerpt: as §1

[5] = Alcohol content of rebaudioside A polymorphs; type: physicochemical
Excerpt: as §1

[6] = type: physicochemical
Protocol: A solution of rebaudioside A (>97% pure by HPLC) was prepared in double distilled water (12.5 gm in 50 mL, 25% concentration) by stirring the mixture at 40° C. for 5 minutes. An amorphous rebaudioside A polymorph was formed by immediately using the clear solution for spray drying with the Lab-Plant spray drier SD-04 instrument (Lab-Plant Ltd., West Yorkshire, U.K.). The solution was fed through the feed pump into the nozzle atomizer which atomized it into a spray of droplets with the help of a constant flow of nitrogen/air. […] This dry powder (11-12 g, H2O 6.74%) was discharged continuously from the drying chamber and was collected in a bottle.

Row | Compound | Sweetness Linger rating defined by protocol [1] | Moisture content [3] | Rate of dissolution in H2O at 25° C. [4] | Alcohol content [5] | further results
1 | OC[C@H]1O[C@@](CO)(O[C@H]2O[C@H](CO)[C@@H](O)[C@H](O)[C@H]2O)[C@@H](O)[C@@H]1O [sugar, sucrose] | 0 | – | – | – | –
2 | rebaudioside A | 5 | – | – | – | sucrose equivalence of sweetness ([2]; 180 ppm rebaudioside A in 1:1 diluted beverage): 5 % sucrose; sucrose equivalence of sweetness ([2]; 400 ppm REBA in citric acid/potassium citrate composition): 8 g sucrose; sweetness linger rating ([1]; control: 400 ppm REBA in citric acid/potassium citrate composition, no additive): 5; sweetness linger rating ([1]; control: 500 ppm REBA in carbon-treated water, phosphoric acid (75%) pH 2.4-2.5): 5
3 | rebaudioside A [Form 1] | – | >5% | Very low | <0.5% | –
4 | rebaudioside A [Form 2] | – | <1% | Intermediate | <1% | –
5 | rebaudioside A [Form 3] | – | <3% | High | 1-3% | –
6 | rebaudioside A [Form 4] | – | 6.74% | High | – | solubility in water at room temperature [6]: > 35.0%
